Experimental data as given in ChEMBL document CHEMBL4428104, “Synthesis and antibacterial evaluation of hamacanthin B analogues” (2016).
Values after ≈ are worked out from the molar mass of the structure shown.

Assays:
Type in all cases: functional
[1] = test system: Staphylococcus aureus; assay: Antibacterial activity against Staphylococcus aureus SG 511 after 24 hrs by two fold serial dilution method; conditions: SG 511, 24 h
[2] = test system: Staphylococcus aureus; assay: Antibacterial activity against methicillin resistant Staphylococcus aureus 3089 after 24 hrs by two fold serial dilution method; conditions: Staphylococcus aureus, 3089, 24 h
[3] = test system: Escherichia coli; assay: Antibacterial activity against multidrug resistant Escherichia coli 1137 after 24 hrs by two fold serial dilution method
[4] = test system: Enterococcus faecalis; assay: Antibacterial activity against multidrug resistant Enterococcus faecalis 5210 after 24 hrs by two fold serial dilution method
[5] = Enterococcus faecalis, 5210, 24 h

**Q.** `O=C(NCC(=O)c1c[nH]c2cc(Br)ccc12)C(=O)c1c[nH]c2cc(Br)ccc12` was tested. Which MIC [1] did it give?
**A.** > 40 µg/mL

**Q.** And the MIC [2]?
**A.** > 40 µg/mL

**Q.** What about the MIC ([3]; Escherichia coli, 1137, 24 h) of the same compound?
**A.** > 40 µg/mL

**Q.** And the MIC [4, 5]?
**A.** > 40 µg/mL

**Q.** With `O=C1NC[C@H](c2c[nH]c3cc(Br)ccc23)N[C@@H]1c1c[nH]c2cc(Br)ccc12` as the compound, how does the MIC [1] read?
**A.** 20 µg/mL (≈ 41 µM)

**Q.** And the MIC [2]?
**A.** 40 µg/mL (≈ 81.9 µM)

**Q.** What about the MIC ([3]; Escherichia coli, 1137, 24 h) of the same compound?
**A.** > 40 µg/mL

**Q.** And the MIC [4, 5]?
**A.** > 40 µg/mL

**Q.** With `O=C1NC[C@H](c2c[nH]c3ccccc23)N[C@@H]1c1c[nH]c2cc(Br)ccc12` as the compound, how does the MIC [1] read?
**A.** 20 µg/mL (≈ 48.9 µM)

**Q.** And the MIC [2]?
**A.** > 40 µg/mL

**Q.** And the MIC ([3]; Escherichia coli, 1137, 24 h)?
**A.** > 40 µg/mL

**Q.** And the MIC [4, 5]?
**A.** > 40 µg/mL

**Q.** What does the source list for GENTAMICIN?
**A.** MIC [3]: > 40 µg/mL; MIC [4]: > 40 µg/mL

**Q.** What does the source list for `O=C1NC[C@@H](c2c[nH]c3ccccc23)N[C@H]1c1c[nH]c2cc(Br)ccc12`?
**A.** MIC [1]: 40 µg/mL (≈ 97.7 µM); MIC [2]: > 40 µg/mL; MIC ([3]; Escherichia coli, 1137, 24 h): > 40 µg/mL; MIC [4, 5]: > 40 µg/mL

**Q.** For `O=c1[nH]cc(-c2c[nH]c3cc(Br)ccc23)nc1-c1c[nH]c2cc(Br)ccc12`, which MIC [1] is on record?
**A.** 10 µg/mL (≈ 20.7 µM)

**Q.** And the MIC [2]?
**A.** 20 µg/mL (≈ 41.3 µM)

**Q.** And the MIC ([3]; Escherichia coli, 1137, 24 h)?
**A.** > 40 µg/mL

**Q.** What about the MIC [4, 5] of the same compound?
**A.** 20 µg/mL (≈ 41.3 µM)

**Q.** Which MIC [1] does the source give for `CN(C)[C@@H]1C(O)=C(C(N)=O)C(=O)[C@@]2(O)C(O)=C3C(=O)c4c(O)cccc4[C@@](C)(O)[C@H]3C[C@@H]12` [TETRACYCLINE] here?
**A.** 0.16 µg/mL (≈ 0.36 µM)

**Q.** For `O=C1NC[C@@H](c2c[nH]c3cc(Br)ccc23)N[C@H]1c1c[nH]c2cc(Br)ccc12` [CIS-3,4-DIHYDROHAMACANTHIN B], which MIC [1] is on record?
**A.** 10 µg/mL (≈ 20.5 µM)

**Q.** And the MIC [2]?
**A.** 20 µg/mL (≈ 41 µM)

**Q.** What about the MIC ([3]; Escherichia coli, 1137, 24 h) of the same compound?
**A.** > 40 µg/mL

**Q.** What about the MIC [4, 5] of the same compound?
**A.** 40 µg/mL (≈ 81.9 µM)

**Q.** For `CCn1cc(C(=O)O)c(=O)c2cc(F)c(N3CCNCC3)cc21` [NORFLOXACIN], which MIC [2] is on record?
**A.** > 40 µg/mL

**Q.** And the MIC ([3]; Escherichia coli, 1137, 24 h)?
**A.** 1.25 µg/mL (≈ 3.91 µM)

**Q.** With `O=C(NCC(=O)c1c[nH]c2ccccc12)C(=O)c1c[nH]c2cc(Br)ccc12` as the compound, how does the MIC [1] read?
**A.** > 40 µg/mL

**Q.** What about the MIC [2] of the same compound?
**A.** > 40 µg/mL

**Q.** And the MIC ([3]; Escherichia coli, 1137, 24 h)?
**A.** > 40 µg/mL

**Q.** And the MIC [4, 5]?
**A.** > 40 µg/mL

**Q.** Which MIC [2] does the source give for `CN[C@H](CC(C)C)C(=O)N[C@H]1C(=O)N[C@@H](CC(N)=O)C(=O)N[C@H]2C(=O)N[C@H]3C(=O)N[C@H](C(=O)N[C@H](C(=O)O)c4cc(O)cc(O)c4-c4cc3ccc4O)[C@H](O)c3ccc(c(Cl)c3)Oc3cc2cc(c3O[C@@H]2O[C@H](CO)[C@@H](O)[C@H](O)[C@H]2O[C@H]2C[C@](C)(N)[C@H](O)[C@H](C)O2)Oc2ccc(cc2Cl)[C@H]1O` [VANCOMYCIN] here?
**A.** 1.25 µg/mL (≈ 0.863 µM)

**Q.** What about the MIC [4, 5] of the same compound?
**A.** 2.5 µg/mL (≈ 1.73 µM)

**Q.** With `O=c1[nH]cc(-c2c[nH]c3ccccc23)nc1-c1c[nH]c2cc(Br)ccc12` as the compound, how does the MIC [1] read?
**A.** 2.5 µg/mL (≈ 6.17 µM)

**Q.** And the MIC [2]?
**A.** 20 µg/mL (≈ 49.4 µM)

**Q.** And the MIC ([3]; Escherichia coli, 1137, 24 h)?
**A.** > 40 µg/mL

**Q.** And the MIC [4, 5]?
**A.** > 40 µg/mL
